Values after ≈ are worked out from the molar mass of the structure shown. Where two headings read alike, the source gives them in different places.
What was measured:
Assay type in all cases: cell-based
[1] = tested on: Acinetobacter baumannii, imipenem-sensitive strain with intermediate sensitivity to ceftazidime; test: MIC by microdilution and/or E-test
From the text: (§1) The strains and the antibiotics used were: • Gram+ • Enterococcus faecalis.
(§2) The doses of antibiotic applied were 0, the MIC determined in the Microbiology Laboratory by means of the microdilution and/or E-test technique, and those of the cutoff points of sensitivity and resistance indicated by the Clinical and Laboratory Standards Institute (CLSI) for each strain. A dose 10 times higher than the MIC was also used.

[2] = tested on: Acinetobacter baumannii, imipenem- and ceftazidime-resistant strain; test: MIC by microdilution and/or E-test
From the text: as §1, §2

[3] = tested on: Acinetobacter baumannii, imipenem-sensitive strain with intermediate sensitivity to ceftazidime; test: technique for evaluating cell wall integrity (lysis solution, nucleoid release, fluorescence microscopy); conditions: 60 minutes
Experimental: (§3) Different bacterial strains grown on a dish with Mueller-Hinton medium for 24 hours were subsequently exposed to a β-lactam antibiotic for 60 minutes in Mueller-Hinton liquid medium at 37° C., under stirring, and were finally processed by means of the technique for evaluating cell wall integrity according to the present invention.
as §2

[4] = tested on: Acinetobacter baumannii, imipenem- and ceftazidime-resistant strain; test: as above; conditions: 60 minutes
Experimental: as §3, §2

[5] = tested on: amoxicilin/clavulanic acid-sensitive E. coli strain
Experimental: The liquid with the cells is included in an agarose microgel which is dehydrated in alcohols and/or air dried or dried in an oven and stained with fluorochrome. It is the same process described in detail above, but without incubation with lysis solution.

[6] = tested on: resistant strain of Escherichia coli; test: technique for evaluating cell wall integrity, Examples 1 and 3
From the text: (§4) Three different strains of Escherichia coli were exposed to the β-lactam antibiotic, amoxicilin, together with the β-lactamase inhibitor, clavulanic acid, and processed by means of the technique for evaluating cell wall integrity of the present invention. […] The doses of antibiotic were chosen according to the cutoff points indicated by the Clinical and Laboratory Standards Institute (CLSI). […] According to the disc diffusion data, one of the strains is a sensitive strain, another strain is a strain with intermediate sensitivity and the remaining strain is a resistant strain.
(§5) A sensitive strain, a strain with intermediate sensitivity and another resistant strain of E. coli were exposed to amoxicilin together with clavulanic acid in Mueller-Hinton liquid medium and processed by means of the technique for evaluating cell wall integrity of the present invention. […] The incubation times with the antibiotic were 5, 10, 20, 30, 40, 60 and 75 minutes.

[7] = tested on: sensitive strain of Escherichia coli; test: as above; conditions: for lysis of the bacteria, showing the nucleoids: exponential liquid culture
From the text: as §4, §5

[8] = tested on: strain of Escherichia coli with intermediate sensitivity; test: as above; conditions: for incubation time at which a clear effect started to show: only after high dose (32/16)
From the text: as §4, §5

[9] = tested on: 11 different strains of E. coli isolated in a Microbiology Service; test: technique for evaluating cell wall integrity on hospital isolates; conditions: of 11 strains, 1 hour
Experimental: Following the results of the preceding experiment (Example 1), 11 different strains of E. coli isolated in a Microbiology Service were studied. After growing on a dish with Mueller-Hinton medium for 24 hours, they were exposed to amoxicilin together with clavulanic acid in Mueller-Hinton liquid medium for 1 hour, after which they were processed by means of the technique for evaluating cell wall integrity according to the present invention.

[10] = tested on: sensitive strain of E. coli; test: background of extracellular DNA fragments, processed without the step of lysis (FIG. 8); conditions: 40 minutes, after 24 hours on a dish
Experimental: The strains were processed without the step of lysis by exposure to the lysis solution.
The liquid with the cells is included in an agarose microgel which is dehydrated in alcohols and/or air dried or dried in an oven and stained with fluorochrome. It is the same process described in detail above, but without incubation with lysis solution. The background can be evaluated rapidly after 15-20 minutes that it takes to perform the technique. The preparations are permanent.

[11] = 32/16, 15 minutes of incubation
[12] = dose 32/16, 40 minutes, exponential liquid culture
[13] = low dose (8/4), bacteria from 24-hour dish culture

C[C@@H](O)[C@H]1C(=O)N2C(C(=O)O)=C(SCCN=CN)C[C@H]12 [imipenem]
MIC [1]: 0.38 µg/mL (≈ 1.27 µM)
MIC [2]: > 32 µg/mL
cells with a large halo ([3]; 4 μg/mL): 13.5%
faint empty capsules ([3]; 4 μg/mL): 12%
lysed cells with nucleoid with fragmented DNA ([3]; 4 μg/mL): 66%
non-lysed cells ([3]; 4 μg/mL): 8.5%
cells with a large halo ([3]; 8 μg/mL): 6%
faint empty capsules ([3]; 8 μg/mL): 19.5%
lysed cells with nucleoid with fragmented DNA ([3]; 8 μg/mL): 69.5%
non-lysed cells ([3]; 8 μg/mL): 5%
cells with a large halo ([3]; 16 μg/mL): 5%
faint empty capsules ([3]; 16 μg/mL): 15%
lysed cells with nucleoid with fragmented DNA ([3]; 16 μg/mL): 73.5%
non-lysed cells ([3]; 16 μg/mL): 6.5%
cells with a large halo ([4]; 16 μg/mL): 1%
cells with a small halo ([4]; 16 μg/mL): 1%
lysed cells with nucleoid with fragmented DNA ([4]; 16 μg/mL): 0.5%
cells not lysed ([4]; 320 μg/mL): 92%
heavily lysed cells ([4]; 320 μg/mL): 3.5%
lysed cells with a small halo ([4]; 320 μg/mL): 2.5%
lysed cells with nucleoid with fragmented DNA ([4]; 320 μg/mL): 2%

amoxicilin/clavulanic acid
background of extracellular DNA fragments, without lysis [5, 11]: very clear background
cells per mL, measured by Neubauer chamber [5, 11]: 42.5 million of cells per mL
OD 600 ([5]; 32/16, 15 minutes of incubation, starting OD 600 0.07): 0.071
OD 600 ([5]; 32/16, 2 hours of incubation): 0.033
cells per mL ([5]; 32/16, 2 hours of incubation): 14.5 million of cells per mL
OD 600 ([5]; 32/16, 3 hours): 0.037
OD 600 ([5]; 32/16, 4 hours): 0.033
OD 600 ([5]; 32/16, 6 hours): 0.035
cells per mL ([5]; 32/16, 6 hours): 13.5 million of cells per mL
background of extracellular DNA fragments, without lysis ([5]; 32/16, after 3 and 4 hours): poor
background of extracellular DNA fragments, without lysis ([5]; 32/16, after 6 hours): no longer observed
cells per mL ([5]; 32/16, at both 3 and 4 hours): 14 million of cells per mL
background of extracellular DNA fragments, without lysis ([5]; 32/16, up to 2 hours of incubation): remains intense
effect on the wall ([6]; 8/4 and 32/16, liquid culture in exponential growth phase): did not show any effect at all
effect on the wall ([6]; 8/4 and 32/16, up to 75 minutes, bacteria from 24-hour dish culture): did not show any effect at all
lysis of the bacteria, showing the nucleoids [6, 12]: not lysed
lysis of the bacteria, showing the nucleoids ([7]; dose 8/4 (8 μg/mL amoxicilin, 4 μg/mL clavulanic acid), 40 minutes): lysed
lysis of the bacteria, showing the nucleoids ([7]; dose 32/16, 40 minutes): lysed
incubation time after which an effect (background, subtle cell lysis) started to be seen ([7]; high dose (32/16), bacteria from 24-hour dish culture): 20 min
incubation time after which an effect started to be observed ([7]; low (8/4) and high (32/16) dose, liquid culture in exponential growth phase): 10 min
incubation time after which the subtle effect was observed [7, 13]: 40 min
incubation time at which the effect became maximum (lysis of virtually all cells) [7, 13]: 60 min
lysis of the bacteria, showing the nucleoids [8, 12]: lysed
incubation time at which a clear effect started to show ([8]; bacteria from 24-hour dish culture): 60 min
incubation time at which a clear effect started to show ([8]; liquid culture in exponential growth phase): 30 to 40 min
strains with complete wall lysis and intense background even at low dose (8/4), categorized as sensitive [9]: Three
strains with complete wall lysis and intense background only at high dose (32/16), intermediate sensitivity [9]: 5
strains with non-lysed and moderately lysed cells, very faint or no background at high dose, categorized as resistant [9]: Two
background of extracellular DNA fragments, without lysis ([10]; high dose (32/16)): increases significantly
background of extracellular DNA fragments, without lysis ([10]; low dose (8/4)): evident
